Assay results: patent publication US20200148646A1, “6-S[…] 7-S[…] ANALOGS AND THE USE THEREOF” (Purdue Pharma, L.P., priority 2013, published 2020)

Columns and labels:
Type in all cases: biochemical
μ-opioid receptor [1] = target: T1, μ-opioid receptor (Homo sapiens, UniProt P35372); experiment: μ-opioid receptor [35S]GTPγS functional assay, HEK-293 or CHO cells; settings: for Emax: HEK-293 or CHO cells, relative to DAMGO
Protocol: (§1) [^35S]GTPγS functional assays were conducted using freshly thawed μ-receptor membranes prepared in-house from a cell line expressing recombinant opioid receptor in a HEK-293, CHO or U-2 OS cell background, or purchased from a commercial source (Perkin Elmer, Shelton, Conn.; or DiscovRx, Fremont, Calif.). Assay reactions were prepared by sequentially adding the following reagents to binding buffer (100 mM NaCl, 10 mM MgCl2, 20 mM HEPES, pH 7.4) on ice (final concentrations indicated): membrane protein (0.026 mg/mL), saponin ([…]), GDP ([…]) and [^35S]GTPγS (0.20 nM; Perkin Elmer, Shelton, Conn.). The prepared membrane solution (190 l/well) was transferred to 96-shallow well polypropylene plates containing 10 μl of 20× concentrated stock solutions of the agonist [D-Ala^2, N-methyl-Phe^4 Gly-ol^5]-enkephalin (DAMGO) prepared in dimethyl sulfoxide (DMSO). Plates were incubated for 30 min at about 25° C. with shaking. Reactions were terminated by rapid filtration onto 96-well Unifilter GF/B filter plates (Perkin Elmer, Shelton, Conn.) using a 96-well tissue harvester (Perkin Elmer, Shelton, Conn.) followed by three filtration washes with 200 μl of ice-cold wash buffer (10 mM NaH2PO4, 10 mM Na2HPO4, pH 7.4). Filter plates were subsequently dried at 50° C. for 2-3 hr. BetaScint scintillation cocktail (Perkin Elmer, Shelton, Conn.) was added (50 μl/well) and plates were counted using a Packard Top-Count for 1 min/well. Data were analyzed using the sigmoidal dose-response curve fitting functions in GraphPad PRISM v. 3.0, or an in-house function for non-linear, sigmoidal dose-response curve-fitting.
(§2) μ GTP EC50 is the concentration of a compound providing 50% of the maximal response for the compound at a μ-opioid receptor.
(§3) μ GTP Emax (%) is the maximal effect elicited by a compound relative to the effect elicited by DAMGO, a standard agonist. Generally, the μ GTP Emax (%) value measures the efficacy of a compound to treat or prevent pain or other Conditions.
In TABLE 2, activity response of certain Compounds of the Invention at the μ- and κ-opioid receptors using HEK-293 or CHO cells was determined as described above for functional assays.

human κ opioid receptor = human κ opioid receptor (Homo sapiens, UniProt P41145); experiment: κ-opioid receptor [35S]GTPγS functional assay, U-2 OS cells; set-up: expressed in transfected cells; host or cells: U-2 OS cells (in-house membranes); settings: for Emax: U2-OS cells, relative to U69,593
Sequence of human κ opioid receptor (P41145 whole entry): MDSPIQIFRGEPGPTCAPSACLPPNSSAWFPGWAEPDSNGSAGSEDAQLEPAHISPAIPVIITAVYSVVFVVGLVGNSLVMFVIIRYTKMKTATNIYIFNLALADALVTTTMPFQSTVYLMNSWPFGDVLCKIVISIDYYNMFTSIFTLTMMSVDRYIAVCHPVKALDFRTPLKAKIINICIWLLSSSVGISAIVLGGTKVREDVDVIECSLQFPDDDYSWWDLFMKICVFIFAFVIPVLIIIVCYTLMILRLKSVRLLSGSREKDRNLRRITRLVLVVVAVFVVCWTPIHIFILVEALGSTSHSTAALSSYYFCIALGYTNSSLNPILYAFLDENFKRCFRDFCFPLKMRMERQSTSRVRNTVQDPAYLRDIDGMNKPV
Protocol: Membranes from recombinant HEK-293 cells, CHO or U-2 OS cells expressing the recombinant human K opioid receptor (K) were prepared by lysing cells in ice cold hypotonic buffer (2.5 mM MgCl2, 50 mM HEPES, pH 7.4) (10 mL/10 cm dish) followed by homogenization with a tissue grinder/Teflon pestle. Functional [^35S]GTPγS binding assays were conducted as follows. K opioid receptor membrane solution was prepared by sequentially adding final concentrations of 0.026 μg/μl κ membrane protein (in-house), 10 μg/mL saponin, 3 μM GDP and 0.20 nM [^35S]GTPγS to binding buffer (100 mM NaCl, 10 mM MgCl2, 20 mM HEPES, pH 7.4) on ice. The prepared membrane solution (190 μl/well) was transferred to 96-shallow well polypropylene plates containing 10 μl of 20× concentrated stock solutions of agonist prepared in DMSO. Plates were incubated for 30 min at a temperature of about 25° C. with shaking. Reactions were terminated by rapid filtration onto 96-well Unifilter GF/B filter plates (Perkin Elmer, Shelton, Conn.) using a 96-well tissue harvester (Packard) and followed by three filtration washes with 200 μl ice-cold binding buffer (10 mM NaH2PO4, 10 mM Na2HPO4, pH 7.4). Filter plates were subsequently dried at 50° C. for 2-3 hours. Fifty μl/well scintillation cocktail (Perkin Elmer, Shelton, Conn.) was added and plates were counted in a Packard Top-Count for 1 min/well.
κ GTP EC50 is the concentration of a compound providing 50% of the maximal response for the compound at a κ receptor.
κ GTP Emax (%) is the maximal effect elicited by a compound relative to the effect elicited by U69,593.
(§4) In TABLE 2A, activity response of certain Compounds of the Invention at the μ- and κ-opioid receptors using U-2 OS cells was determined as described above for functional assays.

μ-opioid receptor [2] = target: T1, μ-opioid receptor; experiment: μ-opioid receptor [35S]GTPγS functional assay, U-2 OS cells; set-up: host or cells: U-2 OS cells; settings: for Emax: U2-OS cells, relative to DAMGO
Protocol: as §1, §2, §3, §4

T1 sequence (P35372 whole entry, species assumed): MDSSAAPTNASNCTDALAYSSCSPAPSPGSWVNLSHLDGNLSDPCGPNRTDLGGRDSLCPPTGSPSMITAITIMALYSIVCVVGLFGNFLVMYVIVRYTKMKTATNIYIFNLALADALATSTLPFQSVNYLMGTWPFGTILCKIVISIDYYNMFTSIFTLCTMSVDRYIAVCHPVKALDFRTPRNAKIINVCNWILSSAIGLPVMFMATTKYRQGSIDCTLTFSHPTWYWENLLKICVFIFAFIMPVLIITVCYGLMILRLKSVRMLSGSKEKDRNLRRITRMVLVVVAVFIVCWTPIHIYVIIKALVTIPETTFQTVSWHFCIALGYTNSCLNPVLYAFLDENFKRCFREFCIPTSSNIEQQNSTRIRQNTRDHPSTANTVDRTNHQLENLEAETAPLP

SMILES | EC50 (μ-opioid receptor [1]) [nM] | Emax (μ-opioid receptor [1]) [%] | EC50 (human κ opioid receptor) [nM] | Emax (human κ opioid receptor) [%] | EC50 (μ-opioid receptor [2]) [nM] | Emax (μ-opioid receptor [2]) [%]
COc1ccc2c(c1)[C@]13CCN(C)[C@H](C2)[C@H]1[C@H](O)C[C@H](OCCO)C3 [Compound 118, (4bS,6R,8R,8aS,9R)-6-(2-hydroxyethoxy)-3-methoxy-11-methyl-6,7,8,8a,9,10-hexahydro-5H-9,4b-(epiminoethano)phenanthren-8-ol] | > 20000 | 31.8 ± 5.76 |  |  |  | 
CN(C)CC(=O)N[C@H]1C[C@@]2(O)[C@H]3Cc4ccc(O)cc4[C@@]2(CCN3CC2CC2)C[C@@H]1O [Compound 111, N-((4bR,6S,7S,8aS,9R)-11-(cyclopropylmethyl)-3,6,8a-trihydroxy-6,7,8,8a,9,10-hexahydro-5H-9,4b-(epiminoethano)phenanthren-7-yl)-2-(dimethylamino)acetamide] | > 20000 | 1.67 ± 0.67 |  |  |  | 
CN(C)[C@@H]1CC[C@@]2(O)[C@H]3Cc4ccc(O)cc4[C@@]2(CCN3C)C1 [Compound 107, (4bR,6R,8aS,9R)-6-(dimethylamino)-11-methyl-5,6,7,8,9,10-hexahydro-8aH-9,4b-(epiminoethano)phenanthrene-3,8a-diol] | 1290 ± 20.3 | 36.3 ± 1.2 |  |  |  | 
CN1CC[C@]23C[C@H](OCCO)C[C@@H](O)[C@@H]2[C@H]1Cc1ccc(O)cc13 [Compound 121, (4bS,6S,8R,8aS,9R)-6-(2-hydroxyethoxy)-11-methyl-6,7,8,8a,9,10-hexahydro-5H-9,4b-(epiminoethano)phenanthrene-3,8-diol] | 1960 ± 876 | 16.6 ± 1.97 |  |  |  | 
CC(C)CCCC(=O)N[C@H]1C[C@@]2(O)[C@H]3Cc4ccc(O)cc4[C@@]2(CCN3CC2CC2)C[C@@H]1O [Compound 115, N-((4bR,6S,7S,8aS,9R)-11-(cyclopropylmethyl)-3,6,8a-trihydroxy-6,7,8,8a,9,10-hexahydro-5H-9,4b-(epiminoethano)phenanthren-7-yl)-5-methylhexanamide] | > 20000 | -1.04 |  |  |  | 
CC(C)CCCC(=O)N[C@H]1C[C@@]2(O)[C@H]3Cc4ccc(O)cc4[C@@]2(CCN3C)CC1O (stereo partly drawn) [Compound 106, 5-methyl-N-((4bR,7S,8aS,9R)-3,6,8a-trihydroxy-11-methyl-6,7,8,8a,9,10-hexahydro-5H-9,4b-(epiminoethano)phenanthren-7-yl)hexanamide] | 635 ± 43.7 | 82.3 ± 1.86 |  |  |  | 
Oc1ccc2c(c1)[C@]13CCN(CC4CC4)[C@H](C2)[C@]1(O)C[C@H](Cc1ccccc1)[C@H](O)C3 [Compound 103, (4bR,6R,7S,8aS,9R)-7-benzyl-11-(cyclopropylmethyl)-5,6,7,8,9,10-hexahydro-8aH-9,4b-(epiminoethano)phenanthrene-3,6,8a-triol] | > 20000 | 1 |  |  |  | 
CN1CC[C@]23C[C@@H](O)[C@@H](NC(=O)c4ccccc4)C[C@@]2(O)[C@H]1Cc1ccc(O)cc13 [Compound 108, N-((4bR,6R,7S,8aS,9R)-3,6,8a-trihydroxy-11-methyl-6,7,8,8a,9,10-hexahydro-5H-9,4b-(epiminoethano)phenanthren-7-yl)benzamide] | 2190 ± 211 | 48.4 ± 0.66 |  |  |  | 
CC(C)CC[C@H]1C[C@@]2(O)[C@H]3Cc4ccc(O)cc4[C@@]2(CCN3C)C[C@H]1O [Compound 109, (4bR,6R,7S,8aS,9R)-7-isopentyl-11-methyl-5,6,7,8,9,10-hexahydro-8aH-9,4b-(epiminoethano)phenanthrene-3,6,8a-triol] | 1870 ± 203 | 41.1 ± 3.25 |  |  |  | 
CCN[C@H]1C[C@@]2(O)[C@H]3Cc4ccc(O)cc4[C@@]2(CCN3C)C[C@@H]1O [Compound 114, (4bR,6S,7S,8aS,9R)-7-(ethylamino)-11-methyl-5,6,7,8,9,10-hexahydro-8aH-9,4b-(epiminoethano)phenanthrene-3,6,8a-triol] | > 20000 | 9.47 ± 0.74 |  |  |  | 
CN[C@H]1C[C@@]2(O)[C@H]3Cc4ccc(O)cc4[C@@]2(CCN3C)C[C@H]1O [Compound 116, (4bR,6R,7S,8aS,9R)-11-methyl-7-(methylamino)-5,6,7,8,9,10-hexahydro-8aH-9,4b-(epiminoethano)phenanthrene-3,6,8a-triol] | 13800 ± 600 | 28.9 ± 1.26 |  |  |  | 
COc1ccc2c(c1)[C@]13CCN(CC4CC4)[C@H](C2)[C@]1(O)C[C@H](NC(=O)C(C)C)C(O)C3 (stereo partly drawn) [Compound 49, N-((4bR,7S,8aS,9R)-11-(cyclopropylmethyl)-6,8a-dihydroxy-3-methoxy-6,7,8,8a,9,10-hexahydro-5H-9,4b-(epiminoethano)phenanthren-7-yl)isobutyramide] |  |  | 7940 | 90.3 ± 1.67 | 8460 | 27 ± 1.53
Oc1ccc2c(c1)[C@]13CCN(CC4CC4)[C@H](C2)[C@]1(O)C[C@@H](N1CCCC1)[C@@H](O)C3 [Compound 38, (4bR,6S,7R,8aS,9R)-11-(cyclopropylmethyl)-7-(pyrrolidin-1-yl)-5,6,7,8,9,10-hexahydro-8aH-9,4b-(epiminoethano)phenanthrene-3,6,8a-triol] |  |  | 0.33 ± 0.022 | 80 ± 3.79 | 1.27 ± 0.19 | 23.3 ± 1.86
O=C(N[C@H]1C[C@@]2(O)[C@H]3Cc4ccc(O)cc4[C@@]2(CCN3CC2CC2)C[C@H]1O)C1CC1 [Compound 64, N-((4bR,6R,7S,8aS,9R)-11-(cyclopropylmethyl)-3,6,8a-trihydroxy-6,7,8,8a,9,10-hexahydro-5H-9,4b-(epiminoethano)phenanthren-7-yl)cyclopropanecarboxamide] |  |  | 48.3 ± 3.1 | 93.7 ± 2.33 | 112 ± 19.3 | 7.33 ± 0.33
COc1ccc2c(c1)[C@]13CCN(CC4CC4)[C@H](C2)[C@]1(O)C[C@@H](NCC(C)C)[C@@H](O)C3 [Compound 33, (4bR,6S,7R,8aS,9R)-11-(cyclopropylmethyl)-7-(isobutylamino)-3-methoxy-5,6,7,8,9,10-hexahydro-8aH-9,4b-(epiminoethano)phenanthrene-6,8a-diol] |  |  | 328 ± 22.1 | 93.7 ± 1.76 | 503 ± 43.5 | 43 ± 3.79
COc1ccc2c(c1)[C@@]13CC[C@H](NCC(C)C)C[C@@]1(O)[C@@H](C2)N(CC1CC1)CC3 [Compound 41, (4bS,7S,8aS,9R)-11-(cyclopropylmethyl)-7-(isobutylamino)-3-methoxy-5,6,7,8,9,10-hexahydro-8aH-9,4b-(epiminoethano)phenanthren-8a-ol] |  |  | 41.6 ± 2.25 | 102 ± 2.19 | 674 ± 63.8 | 74.7 ± 4.67
N=C(N)NCCN[C@H]1CC[C@]23CCN(CC4CC4)[C@H](Cc4ccc(O)cc42)[C@]3(O)C1 [Compound 32, 1-(2-(((4bS,7S,8aS,9R)-11-(cyclopropylmethyl)-3,8a-dihydroxy-6,7,8,8a,9,10-hexahydro-5H-9,4b-(epiminoethano)phenanthren-7-yl)amino)ethyl)guanidine] |  |  | > 20000 | -1 | > 20000 | 5.33 ± 1.45
COc1ccc2c(c1)[C@@]13CC[C@@H](O)C[C@@]1(O)[C@@H](C2)N(CC1CC1)CC3 [Compound 52, (4bS,7R,8aS,9R)-11-(cyclopropylmethyl)-3-methoxy-5,6,7,8,9,10-hexahydro-8aH-9,4b-(epiminoethano)phenanthrene-7,8a-diol] |  |  | 1570 ± 97.4 | 91.3 ± 0.67 | 1260 | 23.2 ± 4.07
